US8063220B2, “Sulfonyl-quinoline derivatives” (Richter Gedeon Nyrt., priority 2007, dated 2011)

Assays:
rat mGluR5 = target: T1, rat mGluR5 (Rattus norvegicus, UniProt P31424); assay: MGluR5 receptor binding test ([3H]-M-MPEP displacement, rat cerebro-cortical membrane preparation); settings: rat mGluR5, [3H]-M-MPEP 2 nM; read-out: mGlu5 Ki
T1 construct: Rat cerebro-cortical membrane preparation was used; from tissue; host or cells: rat cerebral cortex (membrane preparation)
Method: Rat cerebro-cortical membrane preparation was used to determine the binding characteristics of reference compounds and novel compounds to the rat mGluR5. The A18 cell line expressing hmGluR5a (purchased from Euroscreen) was used to determine binding characteristics of the chemical compounds to the human mGluR5a receptor. [3H]-M-MPEP (2 nM) was used as radioligand. The nonspecific binding was determined in the presence of 10 μM M-MPEP.

rat mGluR1 = target: T2, rat mGluR1 (Rattus norvegicus, UniProt P23385); assay: MGluR1 receptor binding test ([3H]R214127 displacement, rat cerebellar membrane preparation); settings: rat mGluR1, [3H]R214127 3 nM; read-out: mGlu1 Ki
T2 construct: rat cerebellar membrane preparation was used; from tissue; host or cells: rat cerebellum (membrane preparation)
T2 sequence (P23385 19-1199): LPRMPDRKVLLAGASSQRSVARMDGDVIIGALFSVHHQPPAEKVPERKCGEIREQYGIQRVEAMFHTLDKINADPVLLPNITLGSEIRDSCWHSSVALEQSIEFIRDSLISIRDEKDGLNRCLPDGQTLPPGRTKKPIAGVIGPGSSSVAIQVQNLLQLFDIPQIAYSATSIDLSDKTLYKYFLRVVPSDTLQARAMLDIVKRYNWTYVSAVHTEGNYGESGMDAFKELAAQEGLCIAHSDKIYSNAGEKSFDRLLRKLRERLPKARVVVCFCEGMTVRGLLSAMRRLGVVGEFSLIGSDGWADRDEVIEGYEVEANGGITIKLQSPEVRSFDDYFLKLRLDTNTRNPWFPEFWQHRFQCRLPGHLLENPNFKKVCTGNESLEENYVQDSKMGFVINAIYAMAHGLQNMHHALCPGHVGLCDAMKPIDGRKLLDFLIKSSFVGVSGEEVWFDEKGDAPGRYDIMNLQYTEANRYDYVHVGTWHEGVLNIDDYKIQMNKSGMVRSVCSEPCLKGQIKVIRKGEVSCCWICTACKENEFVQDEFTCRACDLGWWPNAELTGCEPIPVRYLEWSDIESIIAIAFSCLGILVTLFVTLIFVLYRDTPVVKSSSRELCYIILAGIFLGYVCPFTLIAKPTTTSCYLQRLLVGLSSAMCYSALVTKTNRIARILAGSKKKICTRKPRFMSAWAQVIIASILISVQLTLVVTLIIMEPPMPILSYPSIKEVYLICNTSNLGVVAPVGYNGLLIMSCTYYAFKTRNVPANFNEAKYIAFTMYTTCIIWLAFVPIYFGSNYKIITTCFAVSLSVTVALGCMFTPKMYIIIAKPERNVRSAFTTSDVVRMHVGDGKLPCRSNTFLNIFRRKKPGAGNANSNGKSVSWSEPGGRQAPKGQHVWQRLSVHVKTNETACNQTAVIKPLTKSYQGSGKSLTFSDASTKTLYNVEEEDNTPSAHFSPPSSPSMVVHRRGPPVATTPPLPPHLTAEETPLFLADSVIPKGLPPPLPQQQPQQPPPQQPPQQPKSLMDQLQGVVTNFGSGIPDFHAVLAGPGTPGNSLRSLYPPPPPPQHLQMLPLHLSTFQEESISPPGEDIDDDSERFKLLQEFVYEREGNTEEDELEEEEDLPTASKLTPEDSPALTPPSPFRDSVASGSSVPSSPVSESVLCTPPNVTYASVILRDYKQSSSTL
Procedure, shortened: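 Rat cerebellar membranes with 3 nM [3H]R214127; nonspecific binding defined by 1 μM R214127. IC50 from displacement curves by nonlinear regression, converted to Ki by Cheng–Prusoff.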

T1 sequence (P31424 21-1203): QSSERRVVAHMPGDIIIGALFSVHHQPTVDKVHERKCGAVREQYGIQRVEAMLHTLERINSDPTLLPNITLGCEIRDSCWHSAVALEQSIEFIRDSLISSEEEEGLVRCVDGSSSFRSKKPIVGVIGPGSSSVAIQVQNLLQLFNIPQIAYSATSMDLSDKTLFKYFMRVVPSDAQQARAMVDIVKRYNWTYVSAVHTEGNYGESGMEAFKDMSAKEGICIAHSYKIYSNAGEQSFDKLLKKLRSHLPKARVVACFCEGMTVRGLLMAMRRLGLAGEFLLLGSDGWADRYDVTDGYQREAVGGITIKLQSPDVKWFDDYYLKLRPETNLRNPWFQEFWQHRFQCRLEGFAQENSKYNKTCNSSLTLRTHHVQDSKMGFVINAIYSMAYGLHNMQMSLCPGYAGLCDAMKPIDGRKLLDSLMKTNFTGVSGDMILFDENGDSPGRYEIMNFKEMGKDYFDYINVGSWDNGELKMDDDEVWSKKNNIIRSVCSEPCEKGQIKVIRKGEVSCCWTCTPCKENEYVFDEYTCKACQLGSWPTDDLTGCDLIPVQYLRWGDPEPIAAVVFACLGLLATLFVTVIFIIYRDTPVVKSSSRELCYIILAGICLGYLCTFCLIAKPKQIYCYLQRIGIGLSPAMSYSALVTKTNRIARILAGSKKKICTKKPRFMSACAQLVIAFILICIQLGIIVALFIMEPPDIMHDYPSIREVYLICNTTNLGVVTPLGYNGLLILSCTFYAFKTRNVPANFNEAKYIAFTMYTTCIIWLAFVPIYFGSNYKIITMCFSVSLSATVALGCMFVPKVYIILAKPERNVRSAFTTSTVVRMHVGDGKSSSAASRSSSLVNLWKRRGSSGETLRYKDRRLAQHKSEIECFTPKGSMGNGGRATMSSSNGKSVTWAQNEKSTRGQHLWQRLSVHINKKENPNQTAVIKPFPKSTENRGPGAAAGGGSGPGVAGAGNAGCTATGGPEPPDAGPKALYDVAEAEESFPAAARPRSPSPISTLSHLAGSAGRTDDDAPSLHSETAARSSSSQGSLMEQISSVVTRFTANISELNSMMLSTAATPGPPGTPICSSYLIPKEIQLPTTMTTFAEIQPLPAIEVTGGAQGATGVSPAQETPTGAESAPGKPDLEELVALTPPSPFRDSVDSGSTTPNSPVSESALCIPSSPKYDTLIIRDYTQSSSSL

| Structure (SMILES) | Ki (rat mGluR5) | Ki (rat mGluR1) |
| --- | --- | --- |
| N#Cc1cccc(S(=O)(=O)c2cnc3cc(Cl)ccc3c2-c2cccc(F)c2)c1 [Compound 234] | < 200 nM | < 200 nM |
| O=S(=O)(c1ccc(F)cc1)c1cnc2cc(Cl)ccc2c1-c1ccc(F)cc1 [Compound 179] | < 200 nM | > 500 nM |
| COc1ccc(S(=O)(=O)c2cnc3cc(F)ccc3c2-c2ccc(Cl)cc2)cc1 [Compound 11] | < 200 nM | > 500 nM |
| O=S(=O)(c1ccc(F)c(F)c1)c1cnc2c(F)cccc2c1-c1ccccc1F [Compound 243] | < 200 nM | > 500 nM |
| O=S(=O)(c1ccc(F)c(F)c1)c1cnc2c(F)cccc2c1-c1ccc(Cl)cc1 [Compound 120] | < 200 nM | 200 to 500 nM |
| N#Cc1cccc(S(=O)(=O)c2cnc3cc(Cl)ccc3c2-c2cccc(Cl)c2)c1 [Compound 254] | < 200 nM | 200 to 500 nM |
| O=S(=O)(c1ccc(F)c(Cl)c1)c1cnc2c(F)cccc2c1-c1ccc(F)cc1 [Compound 212] | < 200 nM | 200 to 500 nM |
| N#Cc1cccc(S(=O)(=O)c2cnc3ccccc3c2-c2cccc(Cl)c2)c1 [Compound 265] | < 200 nM | > 500 nM |
| O=S(=O)(c1ccc(F)c(Cl)c1)c1cnc2cc(F)ccc2c1-c1ccc(Cl)cc1 [Compound 102] | < 200 nM | 200 to 500 nM |
| N#Cc1cc(F)cc(S(=O)(=O)c2cnc3cc(F)ccc3c2-c2ccc(Cl)cc2)c1 [Compound 268] | < 200 nM | > 500 nM |
| O=S(=O)(c1ccc(F)c(F)c1)c1cnc2cc(F)ccc2c1-c1cccc(Cl)c1 [Compound 97] | 200 to 500 nM | 200 to 500 nM |
| O=S(=O)(c1ccc(F)c(F)c1)c1cnc2c(F)cccc2c1-c1cccc(Cl)c1 [Compound 259] | < 200 nM | > 500 nM |
| N#Cc1cc(S(=O)(=O)c2cnc3cc(Cl)ccc3c2-c2cccc(Cl)c2)ccc1F [Compound 242] | < 200 nM | < 200 nM |
| O=S(=O)(c1ccc(F)c(Cl)c1)c1cnc2c(F)c(Cl)ccc2c1-c1ccc(F)cc1 [Compound 205] | < 200 nM | > 500 nM |
| O=S(=O)(c1ccc(F)c(F)c1)c1cnc2c(F)cccc2c1-c1ccc(F)cc1 [Compound 123] | < 200 nM | < 200 nM |
| O=S(=O)(c1ccc(F)cc1)c1cnc2cc(Cl)ccc2c1-c1ccc(Cl)cc1 [Compound 172] | < 200 nM | > 500 nM |
| COc1ccc(-c2c(S(=O)(=O)c3ccc(OC)c(OC)c3)cnc3ccc(F)cc23)cc1 [Compound 71] | > 500 nM | > 500 nM |

| Structure (SMILES) | Ki (rat mGluR5) | Ki (rat mGluR1) |
| --- | --- | --- |
| N#Cc1cccc(S(=O)(=O)c2cnc3c(F)cccc3c2-c2ccccc2F)c1 [Compound 213] | < 200 nM | > 500 nM |
| N#Cc1ccc2ncc(S(=O)(=O)c3cc(Cl)cc(Cl)c3)c(-c3ccccc3F)c2c1 [Compound 200] | > 500 nM | > 500 nM |
| COc1ccc(-c2c(S(=O)(=O)c3ccc(OC)cc3)cnc3cc(F)ccc23)cc1 [Compound 13] | < 200 nM | > 500 nM |
| Cc1ccc(S(=O)(=O)c2cnc3ccc(F)cc3c2-c2ccc(F)cc2)cc1C [Compound 148] | < 200 nM | > 500 nM |
| COc1ccc(-c2c(S(=O)(=O)c3cc(Cl)cc(Cl)c3)cnc3c(F)cccc23)cc1 [Compound 107] | < 200 nM | > 500 nM |
| COc1ccc(-c2c(S(=O)(=O)c3cc(Cl)cc(Cl)c3)cnc3ccc(F)cc23)cc1 [Compound 125] | < 200 nM | > 500 nM |
| COc1ccc(-c2c(S(=O)(=O)c3cc(Cl)cc(Cl)c3)cnc3cc(F)ccc23)cc1 [Compound 81] | < 200 nM | > 500 nM |
| COc1cccc(-c2c(S(=O)(=O)c3ccc(F)c(F)c3)cnc3cc(F)ccc23)c1 [Compound 100] | < 200 nM | > 500 nM |
| COc1ccc(S(=O)(=O)c2cnc3ccc(F)cc3c2-c2ccc(F)cc2)cc1 [Compound 143] | 200 to 500 nM | > 500 nM |
| N#Cc1cccc(S(=O)(=O)c2cnc3cc(Cl)ccc3c2-c2ccccc2F)c1 [Compound 227] | < 200 nM | < 200 nM |
| Cc1ccc(S(=O)(=O)c2cnc3ccc(F)cc3c2-c2ccc(Cl)cc2)cc1C [Compound 33] | < 200 nM | > 500 nM |
| O=S(=O)(c1ccc(Cl)c(F)c1)c1cnc2cc(F)c(Cl)cc2c1-c1ccc(Cl)cc1 [Compound 189] | < 200 nM | > 500 nM |
| Cc1ccc(S(=O)(=O)c2cnc3ccc(F)cc3c2-c2ccc(Cl)cc2)cc1Cl [Compound 139] | < 200 nM | > 500 nM |
| COc1ccc(-c2c(S(=O)(=O)c3cccc(F)c3)cnc3c(F)cccc23)cc1 [Compound 61] | < 200 nM | > 500 nM |
| COc1ccc(-c2c(S(=O)(=O)c3cc(F)cc(F)c3)cnc3c(F)cccc23)cc1 [Compound 117] | < 200 nM | > 500 nM |
| O=S(=O)(c1ccc(F)c(Cl)c1)c1cnc2cc(Cl)ccc2c1-c1cccc(F)c1 [Compound 171] | < 200 nM | > 500 nM |

The next lines start with the values.

| Ki (rat mGluR5) | Ki (rat mGluR1) | Structure (SMILES) |
| --- | --- | --- |
| 200 to 500 nM | > 500 nM | COc1cccc(S(=O)(=O)c2cnc3cc(F)ccc3c2-c2cccc(F)c2)c1 [Compound 95] |
| < 200 nM | > 500 nM | Cc1ccc(S(=O)(=O)c2cnc3ccc(F)cc3c2-c2cccc(Cl)c2)cc1F [Compound 127] |
| 200 to 500 nM | > 500 nM | COc1ccc(-c2c(S(=O)(=O)c3cc(F)cc(F)c3)cnc3ccc(F)cc23)cc1 [Compound 133] |
| 200 to 500 nM | 200 to 500 nM | O=S(=O)(c1cc(F)cc(F)c1)c1cnc2ccc(F)cc2c1-c1cccc(F)c1 [Compound 65] |
| < 200 nM | > 500 nM | Cc1ccc(S(=O)(=O)c2cnc3ccc(F)cc3c2-c2cccc(Cl)c2)cc1Cl [Compound 138] |
| < 200 nM | > 500 nM | Cc1ccc(S(=O)(=O)c2cnc3cc(F)ccc3c2-c2cccc(F)c2)cc1C [Compound 18] |
| < 200 nM | > 500 nM | Cc1ccc(S(=O)(=O)c2cnc3ccc(F)cc3c2-c2cccc(F)c2)cc1F [Compound 128] |
| < 200 nM | > 500 nM | COc1ccc(S(=O)(=O)c2cnc3ccc(F)cc3c2-c2cccc(F)c2)cc1Cl [Compound 79] |
| < 200 nM | 200 to 500 nM | O=S(=O)(c1cccc(F)c1)c1cnc2cc(F)ccc2c1-c1cccc(F)c1 [Compound 15] |
| < 200 nM | > 500 nM | COc1cccc(-c2c(S(=O)(=O)c3cc(F)cc(F)c3)cnc3c(F)cccc23)c1 [Compound 118] |
| < 200 nM | > 500 nM | COc1cccc(-c2c(S(=O)(=O)c3ccc(C)c(F)c3)cnc3ccc(F)cc23)c1 [Compound 130] |
| 200 to 500 nM | > 500 nM | O=S(=O)(c1cc(F)cc(F)c1)c1cnc2cc(Cl)c(F)cc2c1-c1ccc(F)cc1 [Compound 202] |
| < 200 nM | 200 to 500 nM | N#Cc1cc(F)cc(S(=O)(=O)c2cnc3cc(Cl)ccc3c2-c2cccc(F)c2)c1 [Compound 221] |
| 200 to 500 nM | > 500 nM | COc1cccc(-c2c(S(=O)(=O)c3ccc(F)c(F)c3)cnc3ccc(F)cc23)c1 [Compound 151] |
| < 200 nM | 200 to 500 nM | Nc1ccc2c(-c3cccc(F)c3)c(S(=O)(=O)c3ccc(F)c(F)c3)cnc2c1 [Compound 264, 7-Amino-3-(3,4-difluoro-benzenesulfonyl)-4-(3-fluoro-phenyl)-quinoline] |
